“Also recorded” adds a separate entry of the source. Like-named read-outs stand apart in the source and are kept apart here. One block for each compound: values may come before it.
Tests used:
K562 cells [1] = assay: Proliferation assay, K562 cells (CellQuantiBlue); format: cell-based; settings: 72 hours; for IC50: K562 cells, QB assay
Method: (§1) K562 cells were cultured in fresh K562 media (RPMI-1640, 10% heat-inactivated Fetalclone III, 1× penicillin/streptomycin). Daudi and RPMI-8226 cells were cultured in fresh Daudi/RPMI media (RPMI-1640, 10% heat-inactivated FBS, 1× penicillin/streptomycin). Gamma delta T cells were cultured as described previously. Briefly, cells were expanded from peripheral blood mononuclear cells in fresh T cell media (RPMI-1640, 10% heat-inactivated FBS, 1× HEPES, pyruvate, non-essential amino acids, penicillin/streptomycin, beta-mercaptoethanol) and added to 6-well plates. Cells were stimulated with test compounds for three days at concentrations indicated in the text. Cells were washed twice then cultured for another eleven days after compound removal. Human interleukin 2 (5 ng/mL) was supplemented every three days. Experiments were performed at least three times independently using at least two different blood donors.
(§2) To assess K562 proliferation, 10000 cells/well were added to 96-well plates in 100 μL K562 media in the presence of test compounds. Similarly, experiments with Daudi cells were initiated at 5000 cells/well and RPMI8226 cells initiated at 6000 cells/well. The cell concentrations were determined by prior dose response experiments to maximize proliferation rates. Cells were allowed to proliferate for 72 hours. During the last 2 hours, cells were labeled with 10 μL of CellQuantiBlue reagent and scanned with a Victor plate reader.

RPMI-8226 cells = assay: Proliferation assay, RPMI-8226 cells (CellQuantiBlue); format: cell-based; settings: 72 hours; for IC50: RPMI-8226 cells, QB assay
Method: as §1, §2

Daudi cells = assay: Proliferation assay, Daudi cells (CellQuantiBlue); format: cell-based; settings: 72 hours; for IC50: Daudi cells, QB assay
Method: as §1, §2

Jurkat cells = assay: Proliferation assay, Jurkat cells (CellQuantiBlue); format: cell-based; settings: 72 hours; for IC50: Jurkat cells, QB assay
Method: [Worded in the source for another cell line; this cell line is reported under the same test.] as §2

[2] = system: primary human gamma delta T cells (Vγ9Vδ2 T cells); assay: Gamma delta T cell expansion from PBMCs; format: cell-based; settings: for gamma delta T cell agonist activity: PBMCs, CD3 and gamma delta TCR surface staining; for EC50: 72 hours treatment
Method: as §1
Total gamma delta TCR was labeled using FITC-anti-human Pan gamma delta TCR antibody and CD3 was labeled using PE-conjugated anti-human CD3 as described.
The MOCCA prodrugs were also evaluated in a functional assay of their ability to stimulate proliferation of primary human gamma delta T cells. Dose response experiments were performed with the experimental compounds—MOCCA-Me-C-HMBP and MOCCA-POM-C-HMBP. POM-Me-C-HMBP, POM2-C-HMBP, Me-C-HMBP, C-HMBP or HMBPP were used as positive controls. Unstimulated cells were used as a negative control. Cells were treated for 72 hours with test compounds, washed, then expanded for 11 additional days prior to quantification to assess proliferation.

[3] = Plasma metabolism by loss of fluorescence (spectrophotometry); format: in vitro ADME, human
Method: (§3) Compounds were exposed to PBS, K562 cells in PBS, or 50% pooled human plasma in PBS. K562 cells were used at a concentration of 1 million per mL. The fluorescence was detected using a Victor X5 plate reader with excitation at 355 nm and emissions at 405. Compounds were mixed with each biological matrix to a final concentration of 10 μM on ice. A baseline reading was measured. Compounds were incubated for one hour at 37° C. and subsequent readings were taken every 15 minutes.
This assay was then adapted to a 384-well-plate format for use in a plate reader equipped with a 355/40 nm excitation filter and a 405/10 nm emission filter. As expected, the fluorescence intensity of MOCCA-Me-C-HMBP in PBS was much higher than that of the free MOCCA group in PBS (FIG. 4B). Additionally, the fluorescence of the free MOCCA group was further reduced when incubated in human plasma (FIG. 4C). […] Therefore, the esterase-mediated hydrolysis of MOCCA-Me-C-HMBP could be readily assessed by quantification of the two-step (release followed by quenching) loss of fluorescence following exposure to various biological matrices.
(§4) The prodrugs and the MOCCA protecting group were stable in PBS (FIG. 5A). […] The half-life was determined to be 7 minutes in this assay. […] In order to confirm that the loss of fluorescence of MOCCA-Me-C-HMBP was indeed due to hydrolysis of the MOCCA-phosphonate ester, the end products were extracted and analyzed by thin layer chromatography. MOCCA-Me-C-HMBP was fully hydrolyzed to yield the free MOCCA group in the presence of human plasma within 40 minutes (FIG. 5D). Loss of the prodrug occurred at the same time as the appearance of the MOCCA free acid.

[4] = Plasma metabolism by thin layer chromatography; format: in vitro ADME; settings: human plasma
Method: Compounds were exposed to cells, plasma, media, or PBS as indicated in the text in 100 μL volumes. Compounds were extracted from all biological mixtures using 200 μL of organic solvent containing 95% dichloromethane, 5% ethanol, and 0.25% glacial acetic acid. Extracts were separated by normal phase […] using 95% dichloromethane, 5% ethanol, and 0.25% glacial acetic acid as the mobile phase. Compounds were visualized under UV light.
as §4

K562 cells [5] = assay: Quantification of cellular uptake in K562 cells; format: cell-based; settings: K562 cells in PBS, 10 μM
Method: as §3
The compounds were then used to examine rates of internalization into K562 cells. […] That is, within hours, effectively all of the drug can pass through the cells.

[6] = system: primary human gamma delta T cells (Vγ9Vδ2 T cells); settings: cited from earlier work
[7] = pH dependence of fluorescence intensity; format: physicochemical; settings: aqueous solutions, pH 6 vs pH 3
Source text: The use of the MOCCA prodrugs as probes with which to determine rates of biological deprotection (FIG. 4) was examined. All three compounds were readily detected by spectrophotometry with excitation maxima of 360 nm and emission maxima of 410 nm in aqueous solutions. Importantly, the fluorescence intensity of the free MOCCA group was strongly dependent upon pH of the solvent (FIG. 4A), correlating with the expected protonation of the carboxylic acid. At pH 6 the intensity of the free MOCCA group was less than 10% of its intensity at pH 3. At the same time, the fluorescence intensity of the MOCCA prodrugs was not pH dependent. Taken together, the MOCCA prodrugs would be expected to rapidly lose fluorescence intensity during metabolism at neutral pH, as the free MOCCA group is released from the prodrug and remains in the deprotonated form.

[8] = dose response curves, read-out: EC50, gamma delta T cell proliferation
[9] = Reference: Hsiao et al., read-out: EC50 for T cell expansion

IC50 (K562 cells [1]): > 100 µM | IC50 (RPMI-8226 cells): 43 µM | IC50 (Daudi cells): 56 µM | IC50 (Jurkat cells): 53 µM
SMILES: COc1ccc2cc(C(=O)OCOP(=O)(CC/C=C(\C)CO)OCOC(=O)C(C)(C)C)c(=O)oc2c1 (stereo not drawn) [MOCCA-POM (9)]
gamma delta T cell agonist activity [2]: functioned as a gamma delta T cell agonist | EC50 [2, 8]: 0.0039 µM

IC50 (K562 cells [1]): > 100 µM | IC50 (RPMI-8226 cells): 44 µM | IC50 (Daudi cells): 58 µM | IC50 (Jurkat cells): > 100 µM
SMILES: C/C(=C\CCP(=O)(OCOC(=O)C(C)(C)C)OCOC(=O)C(C)(C)C)CO [POM2-C-HMBP (7)]
EC50 ([6]; published value, unit inferred, read-out: published EC50 value, gamma delta T cell proliferation): 0.0054 µM

Second part, the compound before the results:

SMILES: COc1ccc2cc(C(=O)OCOP(=O)(CC/C=C(\C)CO)OC)c(=O)oc2c1 (stereo not drawn) [MOCCA-Me—C-HMBP (5)]
IC50 (K562 cells [1]; Homo sapiens): > 100 µM | IC50 (RPMI-8226 cells; Homo sapiens): 64 µM | IC50 (Daudi cells; Homo sapiens): > 100 µM | IC50 (Jurkat cells; Homo sapiens): > 100 µM | EC50 ([2]; Homo sapiens, T-cell, 11 additional days expansion, Reference: none, read-out: EC50 for T cell expansion): 0.018 µM | EC50 ([2]; Homo sapiens, T-cell, dose response curves, read-out: EC50, gamma delta T cell proliferation): 0.018 µM | gamma delta T cell agonist activity [2]: functioned as a gamma delta T cell agonist; also recorded: potent gamma delta T cell agonist | increase in activity of the MOCCA protected compound over Me-C-HMBP ([2]; ratio of EC50 values): 1300 fold | order of decay kinetics in plasma ([3]; 50% human plasma in PBS, spectrophotometry): 2nd order kinetics | half-life at 10 μM ([3]; 50% pooled human plasma in PBS, 50% human plasma in PBS, spectrophotometry): 7 min | relative rate of plasma metabolism ([3]; human plasma): metabolized more rapidly relative to the bulkier MOCCA-POM-C-HMBP | time to full hydrolysis to the free MOCCA group [4]: ≤ 40 min | half-life ([4]; read-out: half-life of enzymatic release): 7.8 min | cellular uptake / cellular metabolism in K562 cells (K562 cells [5]): faster than that of MOCCA-POM-C-HMBP

SMILES: C1CN2CCN1CC2.COP(=O)(O)CC/C=C(\C)CO [Me—C-HMBP (4)]
IC50 (K562 cells [1]): > 100 µM | IC50 (RPMI-8226 cells): > 100 µM | IC50 (Daudi cells): > 100 µM | IC50 (Jurkat cells): > 100 µM | EC50 [2, 8]: 23 µM

SMILES: COc1ccc2cc(C(=O)O)c(=O)oc2c1 [MOCCA (1), 7-Methoxy-2-oxo-2H-chromene-3-carboxylic acid]
cellular toxicity, K562 (K562 cells [1]; concentrations up to 100 μM): no cellular toxicity | IC50 (K562 cells [1]; Homo sapiens): > 100 µM | cellular toxicity, RPMI-8226 (RPMI-8226 cells; concentrations up to 100 μM): no cellular toxicity | IC50 (RPMI-8226 cells; Homo sapiens): > 100 µM | cellular toxicity, Daudi (Daudi cells; concentrations up to 100 μM): no cellular toxicity | IC50 (Daudi cells; Homo sapiens): > 100 µM | cellular toxicity, Jurkat (Jurkat cells; concentrations up to 100 μM): no cellular toxicity | IC50 (Jurkat cells; Homo sapiens): > 100 µM | fluorescence intensity at pH 6 relative to intensity at pH 3 [7]: less than 10%

SMILES: COP(=O)(CC/C=C(\C)CO)OCOC(=O)C(C)(C)C (stereo not drawn) [POM-Me—C-HMBP]
IC50 (K562 cells [1]): > 100 µM | IC50 (RPMI-8226 cells): > 100 µM | IC50 (Daudi cells): > 100 µM | IC50 (Jurkat cells): > 100 µM | gamma delta T cell agonist activity [2]: not statistically different from that of POM-Me-C-HMBP | EC50 [6, 9]: 0.52 µM | EC50 ([6]; published value, Hsiao et al. 2014, read-out: published EC50, gamma delta T cell proliferation): 0.5 µM

SMILES: C/C(=C\CCP(=O)(O)O)CO [C-HMBP]
IC50 (K562 cells [1]): > 100 µM | IC50 (RPMI-8226 cells): > 100 µM | IC50 (Daudi cells): > 100 µM | IC50 (Jurkat cells): > 100 µM | EC50 [6, 9]: 4 µM
